Laboratory results published in ChEMBL document CHEMBL6109064, “Functional and structural polypharmacology of indazole-based privileged ligands to tackle the undruggability of membrane transporters” (Eur J Med Chem, 2025).
Activity calls are given as the source filed them. The calls are words filed in the database; no cut-off is given here.

How the values were obtained:
[1] = molecular target: T1, Solute carrier family 22 member 3 (Homo sapiens, UniProt O75751); test: Inhibition of OCT3 (unknown origin) expressed in HEK293 cells assessed as inhibition of ASP+ uptake incubated for 5 mins by fluorescence based analysis; assay type: cell-based
T1 sequence (O75751 whole entry): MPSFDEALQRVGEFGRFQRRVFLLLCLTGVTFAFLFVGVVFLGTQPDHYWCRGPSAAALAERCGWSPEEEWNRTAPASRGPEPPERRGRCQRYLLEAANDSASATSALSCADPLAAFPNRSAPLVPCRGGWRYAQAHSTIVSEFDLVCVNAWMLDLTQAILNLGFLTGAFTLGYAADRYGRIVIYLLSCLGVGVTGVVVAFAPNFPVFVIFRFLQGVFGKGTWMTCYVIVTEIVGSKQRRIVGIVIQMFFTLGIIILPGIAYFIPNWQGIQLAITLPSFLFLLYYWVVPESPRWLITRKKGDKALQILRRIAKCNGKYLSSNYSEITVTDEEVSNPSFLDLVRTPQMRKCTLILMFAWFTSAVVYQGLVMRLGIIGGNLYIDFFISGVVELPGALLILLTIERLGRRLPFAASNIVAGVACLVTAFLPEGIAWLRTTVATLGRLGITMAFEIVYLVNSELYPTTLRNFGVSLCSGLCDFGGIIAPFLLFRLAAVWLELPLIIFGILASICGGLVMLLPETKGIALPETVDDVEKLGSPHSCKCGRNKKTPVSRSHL

[2] = molecular target: T2, Solute carrier organic anion transporter family member 1B3 (Homo sapiens, UniProt Q9NPD5); test: Inhibition of OATP1B3 (unknown origin) transfected in human A-431 cells assessed as inhibition of DHPDS uptake preincubated for 5 mins followed by DHPDS addition and measured after 10 mins by fluorescence based analysis; assay type: cell-based
T2 sequence (Q9NPD5 whole entry): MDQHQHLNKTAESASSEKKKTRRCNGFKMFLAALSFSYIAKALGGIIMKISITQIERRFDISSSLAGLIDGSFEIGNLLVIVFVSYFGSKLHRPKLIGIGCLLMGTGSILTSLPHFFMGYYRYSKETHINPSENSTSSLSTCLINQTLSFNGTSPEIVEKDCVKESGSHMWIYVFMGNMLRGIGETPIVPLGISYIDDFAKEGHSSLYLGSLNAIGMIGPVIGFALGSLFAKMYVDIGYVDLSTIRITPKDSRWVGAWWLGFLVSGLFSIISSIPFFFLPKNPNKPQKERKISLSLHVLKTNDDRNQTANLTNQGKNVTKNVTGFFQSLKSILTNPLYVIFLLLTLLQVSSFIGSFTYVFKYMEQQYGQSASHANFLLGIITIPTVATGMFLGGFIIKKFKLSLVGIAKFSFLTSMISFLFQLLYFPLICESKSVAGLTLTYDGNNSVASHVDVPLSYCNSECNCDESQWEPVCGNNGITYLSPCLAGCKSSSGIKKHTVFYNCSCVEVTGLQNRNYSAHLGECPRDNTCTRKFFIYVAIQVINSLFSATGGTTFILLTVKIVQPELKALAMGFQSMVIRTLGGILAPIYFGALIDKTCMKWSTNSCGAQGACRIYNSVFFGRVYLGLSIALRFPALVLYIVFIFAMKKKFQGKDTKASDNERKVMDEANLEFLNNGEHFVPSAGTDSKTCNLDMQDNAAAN

[3] = molecular target: T3, Solute carrier family 22 member 1 (Homo sapiens, UniProt O15245); test: Inhibition of OCT1 (unknown origin) expressed in HEK293 cells assessed as inhibition of ASP+ uptake incubated for 5 mins by fluorescence based analysis; assay type: cell-based; settings: hek293, 5 min
T3 sequence (O15245 whole entry): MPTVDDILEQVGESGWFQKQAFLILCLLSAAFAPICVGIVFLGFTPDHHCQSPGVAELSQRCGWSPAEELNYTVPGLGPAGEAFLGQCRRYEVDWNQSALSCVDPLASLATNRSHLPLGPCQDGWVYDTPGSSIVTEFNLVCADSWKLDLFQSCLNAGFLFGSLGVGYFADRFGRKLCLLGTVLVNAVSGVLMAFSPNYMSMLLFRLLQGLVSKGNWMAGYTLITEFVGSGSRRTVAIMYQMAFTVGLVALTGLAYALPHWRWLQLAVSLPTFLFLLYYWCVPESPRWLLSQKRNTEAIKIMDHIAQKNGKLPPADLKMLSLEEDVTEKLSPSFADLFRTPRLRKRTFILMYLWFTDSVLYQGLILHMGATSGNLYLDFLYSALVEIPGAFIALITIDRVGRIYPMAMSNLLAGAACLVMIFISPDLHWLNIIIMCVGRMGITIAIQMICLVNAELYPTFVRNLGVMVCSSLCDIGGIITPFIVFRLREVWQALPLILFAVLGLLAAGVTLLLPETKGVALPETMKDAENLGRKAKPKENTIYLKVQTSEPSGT

[4] = molecular target: T4, Broad substrate specificity ATP-binding cassette transporter ABCG2 (Homo sapiens, UniProt Q9UNQ0); test: Inhibition of ABCG2 (unknown origin) expressed in dog MDCK-II-BCRP cells assessed as increase in Hoechst 33342 fluorescence intensity using Hoechst 33342 as tracer preincubated for 30 mins followed by Hoechst 33342 addition and measured after 120 mins by fluorescence based analysis; assay type: cell-based
T4 sequence (Q9UNQ0 whole entry): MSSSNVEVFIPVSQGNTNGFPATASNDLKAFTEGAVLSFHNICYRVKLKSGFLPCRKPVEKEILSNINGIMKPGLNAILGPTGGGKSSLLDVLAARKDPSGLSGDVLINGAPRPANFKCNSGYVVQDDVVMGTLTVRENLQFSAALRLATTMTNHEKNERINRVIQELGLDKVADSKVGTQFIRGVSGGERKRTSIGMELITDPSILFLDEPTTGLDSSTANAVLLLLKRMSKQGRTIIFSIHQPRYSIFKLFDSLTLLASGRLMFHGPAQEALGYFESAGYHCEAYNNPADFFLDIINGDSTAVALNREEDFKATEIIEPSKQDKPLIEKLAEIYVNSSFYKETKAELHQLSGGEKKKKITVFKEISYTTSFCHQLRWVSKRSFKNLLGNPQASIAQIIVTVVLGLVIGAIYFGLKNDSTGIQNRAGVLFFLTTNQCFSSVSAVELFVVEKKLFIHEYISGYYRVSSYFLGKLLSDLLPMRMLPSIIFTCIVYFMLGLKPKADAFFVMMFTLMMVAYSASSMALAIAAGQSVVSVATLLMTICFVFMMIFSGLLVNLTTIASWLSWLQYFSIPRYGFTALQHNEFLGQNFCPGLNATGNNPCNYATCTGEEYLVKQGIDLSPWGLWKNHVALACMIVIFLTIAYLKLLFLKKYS

[5] = molecular target: Sodium-dependent dopamine transporter (Homo sapiens) (UniProt Q01959); test: Inhibition of DAT (unknown origin) expressed in HEK293 cells assessed as inhibition of MPP+ transport incubated for 5 mins by tandem mass spectrometry; assay type: cell-based
[6] = molecular target: T4, Broad substrate specificity ATP-binding cassette transporter ABCG2; test: Inhibition of ABCG2 (unknown origin) expressed in dog MDCK-II-BCRP cells assessed as increase in pheophorbide A fluorescence intensity using pheophorbide as tracer preincubated for 30 mins followed by pheophorbide addition and measured for 180 mins by flow cytometry; assay type: cell-based
MDA-MB-231 = test: Cytotoxicity against human MDA-MB-231 cells assessed as inhibition of cell growth by MTT assay; assay type: functional

Chain of Sodium-dependent dopamine transporter (Homo sapiens) (Q01959 whole entry): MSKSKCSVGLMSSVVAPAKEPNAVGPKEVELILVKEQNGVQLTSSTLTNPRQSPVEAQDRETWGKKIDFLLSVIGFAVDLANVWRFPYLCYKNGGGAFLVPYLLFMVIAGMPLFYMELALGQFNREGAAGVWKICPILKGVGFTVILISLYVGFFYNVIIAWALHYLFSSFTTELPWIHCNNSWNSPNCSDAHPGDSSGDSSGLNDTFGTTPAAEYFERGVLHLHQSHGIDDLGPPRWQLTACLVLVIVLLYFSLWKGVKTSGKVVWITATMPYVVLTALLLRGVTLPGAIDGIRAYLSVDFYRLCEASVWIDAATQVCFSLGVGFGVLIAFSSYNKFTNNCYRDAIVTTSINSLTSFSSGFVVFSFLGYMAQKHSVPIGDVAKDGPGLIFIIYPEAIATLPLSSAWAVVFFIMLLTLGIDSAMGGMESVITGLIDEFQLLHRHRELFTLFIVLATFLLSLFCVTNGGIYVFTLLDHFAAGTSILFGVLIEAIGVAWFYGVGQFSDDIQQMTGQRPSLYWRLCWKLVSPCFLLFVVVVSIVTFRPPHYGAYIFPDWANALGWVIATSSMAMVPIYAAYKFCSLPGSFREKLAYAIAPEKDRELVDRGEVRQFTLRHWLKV

SMILES	IC50 ([1]; read-out: IC50)	IC50 [2]	inhibition (INH) [3]	IC50 [4]	inhibition [5]	IC50 [6]	IC50 ([1]; hek293)	GI50 (MDA-MB-231)
COc1cccc(NC(=O)c2nn(CC(=O)Nc3ccccc3OC)c3ccccc23)c1	76.4 µM	1.8 µM	Not_active	6.29 µM	inactive	1.66 µM		
O=C(Cn1nc(C(=O)Nc2ccccn2)c2ccccc21)Nc1cc(Cl)ccc1Cl		14.1 µM	Not_active	1.03 µM	inactive	1.17 µM	Not_active	29.9 µM
O=C(Cn1nc(C(=O)Nc2cccnc2)c2ccccc21)Nc1ccc(Cl)cc1	111 µM	1.84 µM	Not_active	6.56 µM	inactive	14.2 µM		30 µM
COc1cccc(NC(=O)Cn2nc(C(=O)Nc3cccc(OC)c3)c3ccccc32)c1		2.29 µM	Not_active	2.07 µM	inactive	1.33 µM	Not_active	
